Experimental data as given in US12497394B2, “Fused-cyclic pyrazolone formamide compound and preparation method therefor, pharmaceutical composition and use thereof” (SHANGHAI INSTITUTE OF MATERIA MEDICA, CHINESE ACADEMY OF …, priority 2018, dated 2025).
Where “and” joins values, the source holds several entries; their conditions need not be identical. Identical values can stand only once. Like-named read-outs stand apart in the source and are kept apart here.

How the values were obtained:
[1] = system: BaF3/TEL-AXL cells; experiment: Proliferation of BaF3/TEL-AXL cells; format: cell-based
Source text: Experimental Example 4: Effect of the Compound on the Proliferation Effect of BaF3/TEL-AXL Cells
Based on the above-mentioned enzyme activity research results, we further explored the effect of the compound on cell proliferation mediated by receptor tyrosine kinase AXL.

[2] = target: EPHA6 (Homo sapiens, UniProt Q9UF33); experiment: Kinase profile screen: EPHA6; format: biochemical; details: 50 nM
Chain of EPHA6 (Q9UF33 23-1036, species assumed): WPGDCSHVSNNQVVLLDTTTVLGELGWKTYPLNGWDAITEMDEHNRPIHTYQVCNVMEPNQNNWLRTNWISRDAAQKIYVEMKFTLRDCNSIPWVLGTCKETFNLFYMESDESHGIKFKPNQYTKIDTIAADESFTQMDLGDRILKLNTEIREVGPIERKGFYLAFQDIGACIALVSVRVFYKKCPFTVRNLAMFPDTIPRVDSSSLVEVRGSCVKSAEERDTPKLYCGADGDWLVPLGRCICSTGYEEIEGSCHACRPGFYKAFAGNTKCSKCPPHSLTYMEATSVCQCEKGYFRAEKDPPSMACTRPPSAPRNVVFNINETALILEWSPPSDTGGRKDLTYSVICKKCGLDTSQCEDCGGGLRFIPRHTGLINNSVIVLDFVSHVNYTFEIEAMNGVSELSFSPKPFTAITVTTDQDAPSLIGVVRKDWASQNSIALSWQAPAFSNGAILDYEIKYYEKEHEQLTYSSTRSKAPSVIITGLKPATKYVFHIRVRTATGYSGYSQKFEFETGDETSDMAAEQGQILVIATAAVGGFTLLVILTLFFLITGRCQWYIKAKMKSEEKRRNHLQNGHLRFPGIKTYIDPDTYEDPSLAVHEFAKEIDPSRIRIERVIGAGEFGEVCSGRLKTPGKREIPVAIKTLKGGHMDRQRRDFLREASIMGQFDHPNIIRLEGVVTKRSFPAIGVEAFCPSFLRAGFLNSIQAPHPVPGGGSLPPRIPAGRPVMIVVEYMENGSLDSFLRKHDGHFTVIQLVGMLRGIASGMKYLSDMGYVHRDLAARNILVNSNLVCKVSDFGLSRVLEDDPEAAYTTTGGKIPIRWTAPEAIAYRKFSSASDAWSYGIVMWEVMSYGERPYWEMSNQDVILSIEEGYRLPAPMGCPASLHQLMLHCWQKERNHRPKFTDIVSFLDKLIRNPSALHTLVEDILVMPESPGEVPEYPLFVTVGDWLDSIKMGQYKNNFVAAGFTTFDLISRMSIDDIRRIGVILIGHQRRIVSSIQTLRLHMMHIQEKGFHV
Source text: (§1) Experimental Example 2: Study on the Selectivity of the Kinase Profile of the Compound Due to compound's potent inhibitory activity against AXL, we selected one of the compounds, DC621044, to screen 369 kinase profiles in order to investigate the compound's selectivity to the kinase profile.

[3] = target: PLK4/SAK (Homo sapiens, UniProt O00444); experiment: Kinase profile screen: PLK4/SAK; format: biochemical; details: 50 nM
Source text: as §1

[4] = target: TYRO3/SKY (Homo sapiens, UniProt Q06418); experiment: Kinase profile screen: TYRO3/SKY; format: biochemical; details: 50 nM
Source text: as §1

[5] = target: TRKB (Homo sapiens, UniProt Q16620); experiment: Kinase profile screen: TRKB; format: biochemical; details: 50 nM
Source text: as §1

[6] = target: FGR (Homo sapiens, UniProt P09769); experiment: Kinase profile screen: FGR; format: biochemical; details: 50 nM
Source text: as §1

[7] = target: MLK2/MAP3K10 (Homo sapiens, UniProt Q02779); experiment: Kinase profile screen: MLK2/MAP3K10; format: biochemical; details: 50 nM
Source text: as §1

[8] = target: ASK1/MAP3K5 (Homo sapiens, UniProt Q99683); experiment: Kinase profile screen: ASK1/MAP3K5; format: biochemical; details: 50 nM
Source text: as §1

[9] = target: c-Src (Homo sapiens, UniProt P12931); experiment: Kinase profile screen: c-Src; format: biochemical; details: 50 nM
Source text: as §1

[10] = target: FLT3 (Homo sapiens, UniProt P36888); experiment: Kinase profile screen: FLT3; format: biochemical; details: 50 nM
Source text: as §1

[11] = target: BRK (Homo sapiens, UniProt Q13882); experiment: Kinase profile screen: BRK; format: biochemical; details: 50 nM
Source text: as §1

[12] = target: receptor tyrosine kinase c-Met (Homo sapiens, UniProt P08581); experiment: In vitro c-Met kinase inhibitory activity; format: biochemical; details: two values per compound
Chain of receptor tyrosine kinase c-Met (P08581 25-1390): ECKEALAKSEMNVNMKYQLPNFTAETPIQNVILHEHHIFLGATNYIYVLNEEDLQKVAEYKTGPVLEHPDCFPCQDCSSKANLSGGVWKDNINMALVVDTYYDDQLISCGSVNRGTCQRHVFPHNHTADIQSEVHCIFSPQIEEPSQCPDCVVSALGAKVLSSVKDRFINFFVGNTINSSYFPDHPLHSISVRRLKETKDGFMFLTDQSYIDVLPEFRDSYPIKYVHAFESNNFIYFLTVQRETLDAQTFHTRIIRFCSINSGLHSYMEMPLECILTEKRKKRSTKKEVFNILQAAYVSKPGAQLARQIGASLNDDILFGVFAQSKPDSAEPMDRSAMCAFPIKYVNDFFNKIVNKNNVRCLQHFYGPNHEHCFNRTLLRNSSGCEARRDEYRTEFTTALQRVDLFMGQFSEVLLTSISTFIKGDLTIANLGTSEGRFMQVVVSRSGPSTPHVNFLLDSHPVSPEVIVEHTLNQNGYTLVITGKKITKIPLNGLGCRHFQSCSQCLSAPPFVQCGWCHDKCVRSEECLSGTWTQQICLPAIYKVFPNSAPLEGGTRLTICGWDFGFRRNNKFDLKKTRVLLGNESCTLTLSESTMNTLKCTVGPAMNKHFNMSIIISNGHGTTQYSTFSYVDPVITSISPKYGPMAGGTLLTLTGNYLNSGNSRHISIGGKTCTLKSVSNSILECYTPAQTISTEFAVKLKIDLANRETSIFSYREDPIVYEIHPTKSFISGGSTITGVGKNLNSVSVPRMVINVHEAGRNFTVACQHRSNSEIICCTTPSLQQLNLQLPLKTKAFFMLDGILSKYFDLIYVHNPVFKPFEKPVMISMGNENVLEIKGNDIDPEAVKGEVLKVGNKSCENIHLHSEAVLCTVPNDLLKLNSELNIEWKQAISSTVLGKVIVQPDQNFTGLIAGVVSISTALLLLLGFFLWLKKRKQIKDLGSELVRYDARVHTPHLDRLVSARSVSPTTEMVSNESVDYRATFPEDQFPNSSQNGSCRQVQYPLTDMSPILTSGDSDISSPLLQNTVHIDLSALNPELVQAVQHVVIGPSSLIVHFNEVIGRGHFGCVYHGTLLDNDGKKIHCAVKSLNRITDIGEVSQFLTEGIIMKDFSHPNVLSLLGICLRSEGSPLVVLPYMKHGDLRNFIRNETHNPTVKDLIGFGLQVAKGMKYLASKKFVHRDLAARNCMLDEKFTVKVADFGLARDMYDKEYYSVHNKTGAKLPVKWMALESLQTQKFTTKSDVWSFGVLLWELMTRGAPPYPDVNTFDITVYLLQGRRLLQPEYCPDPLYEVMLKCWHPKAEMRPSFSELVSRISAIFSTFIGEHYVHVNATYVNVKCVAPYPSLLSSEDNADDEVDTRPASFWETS
Source text: Experimental Example 3: Study of In Vitro c-Met Kinase Inhibitory Activity
Since the screening results of 369 kinase profiles of compound DC621044 has shown that the compound has a certain inhibitory activity on c-Met. We further screened some compounds for their inhibitory activity on c-Met kinase.

[13] = target: AXL (Homo sapiens, UniProt P30530); experiment: Kinase profile screen: AXL; format: biochemical; details: 50 nM
Source text: as §1

[14] = target: MER (Homo sapiens, UniProt Q12866); experiment: Kinase profile screen: MER; format: biochemical; details: 50 nM
Source text: as §1

[15] = target: HIPK4 (Homo sapiens, UniProt Q8NE63); experiment: Kinase profile screen: HIPK4; format: biochemical; details: 50 nM
Source text: as §1

[16] = target: FRK/PTK5 (Homo sapiens, UniProt P42685); experiment: Kinase profile screen: FRK/PTK5; format: biochemical; details: 50 nM
Source text: as §1

[17] = target: TRKC (Homo sapiens, UniProt Q16288); experiment: Kinase profile screen: TRKC; format: biochemical; details: 50 nM
Source text: as §1

[18] = system: 369 kinases; experiment: Selectivity of the kinase profile (369 kinases); format: biochemical; details: 369 kinases screened
Source text: as §1

[19] = target: BLK (Homo sapiens, UniProt P51451); experiment: Kinase profile screen: BLK; format: biochemical; details: 50 nM
Source text: as §1

[20] = target: c-MET (Homo sapiens, UniProt P08581); experiment: Kinase profile screen: c-MET; format: biochemical; details: 50 nM
Chain of c-MET (P08581 25-1390): as above
Source text: as §1

[21] = target: IRR/INSRR (Homo sapiens, UniProt P14616); experiment: Kinase profile screen: IRR/INSRR; format: biochemical; details: 50 nM
Source text: as §1

[22] = target: EGFR (Homo sapiens, UniProt P00533); experiment: Kinase profile screen: EGFR; format: biochemical; details: 50 nM
Source text: as §1

[23] = target: LCK (Homo sapiens, UniProt P06239); experiment: Kinase profile screen: LCK; format: biochemical; details: 50 nM
Source text: as §1

[24] = target: DDR1 (Homo sapiens, UniProt Q08345); experiment: Kinase profile screen: DDR1; format: biochemical; details: 50 nM
Source text: as §1

[25] = target: FYN (Homo sapiens, UniProt P06241); experiment: Kinase profile screen: FYN; format: biochemical; details: 50 nM
Chain of FYN (P06241 whole entry, species assumed): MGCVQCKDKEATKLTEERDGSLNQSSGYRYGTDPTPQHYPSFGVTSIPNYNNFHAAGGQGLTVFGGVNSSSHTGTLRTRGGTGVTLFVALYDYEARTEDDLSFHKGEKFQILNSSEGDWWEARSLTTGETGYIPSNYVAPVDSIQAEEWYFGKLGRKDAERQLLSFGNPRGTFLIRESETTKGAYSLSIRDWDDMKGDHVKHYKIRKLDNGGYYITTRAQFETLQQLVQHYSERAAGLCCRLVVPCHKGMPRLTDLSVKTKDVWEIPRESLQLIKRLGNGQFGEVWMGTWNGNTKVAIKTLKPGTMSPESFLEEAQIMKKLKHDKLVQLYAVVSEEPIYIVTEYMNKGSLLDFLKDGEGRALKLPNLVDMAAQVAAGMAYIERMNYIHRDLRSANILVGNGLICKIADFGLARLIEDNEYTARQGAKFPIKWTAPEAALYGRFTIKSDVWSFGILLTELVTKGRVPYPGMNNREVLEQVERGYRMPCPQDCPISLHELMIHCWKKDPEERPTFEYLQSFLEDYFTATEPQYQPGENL
Source text: as §1

[26] = target: RON/MSTIR (Homo sapiens, UniProt Q04912); experiment: Kinase profile screen: RON/MSTIR; format: biochemical; details: 50 nM
Source text: as §1

[27] = target: TRKA (Homo sapiens, UniProt P04629); experiment: Kinase profile screen: TRKA; format: biochemical; details: 50 nM
Chain of TRKA (P04629 33-796, species assumed): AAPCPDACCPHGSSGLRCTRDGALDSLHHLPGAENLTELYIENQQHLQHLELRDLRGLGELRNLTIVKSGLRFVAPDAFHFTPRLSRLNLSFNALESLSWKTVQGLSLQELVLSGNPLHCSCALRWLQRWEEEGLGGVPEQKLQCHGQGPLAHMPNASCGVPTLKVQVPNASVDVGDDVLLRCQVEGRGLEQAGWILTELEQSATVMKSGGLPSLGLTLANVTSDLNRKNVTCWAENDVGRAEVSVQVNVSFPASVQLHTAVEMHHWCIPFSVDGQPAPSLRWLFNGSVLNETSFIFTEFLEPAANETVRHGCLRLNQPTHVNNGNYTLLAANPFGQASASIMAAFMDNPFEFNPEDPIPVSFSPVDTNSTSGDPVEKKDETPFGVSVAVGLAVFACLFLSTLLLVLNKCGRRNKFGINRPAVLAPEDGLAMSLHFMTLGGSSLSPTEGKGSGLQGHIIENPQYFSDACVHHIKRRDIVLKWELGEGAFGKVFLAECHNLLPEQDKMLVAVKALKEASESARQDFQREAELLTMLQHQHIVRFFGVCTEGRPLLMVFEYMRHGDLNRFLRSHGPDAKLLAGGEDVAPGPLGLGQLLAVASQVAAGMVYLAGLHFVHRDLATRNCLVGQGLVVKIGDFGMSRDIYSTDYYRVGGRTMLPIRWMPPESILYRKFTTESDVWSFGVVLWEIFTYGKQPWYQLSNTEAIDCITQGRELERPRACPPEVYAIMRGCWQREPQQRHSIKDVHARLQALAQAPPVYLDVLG
Source text: as §1

COCCOc1cc2ncnc(Oc3ccc(NC(=O)c4c5n(n(-c6ccc(F)cc6)c4=O)CCCC5)cc3F)c2cc1OCCOC [DC621044, N-(4-((6,7-bis(2-methoxyethoxy)quinazolin-4-yl)oxy)-3-fluorophenyl)-1-(4-fluorophenyl)-2-oxo-1,2,4,5,6,7-hexahydropyrazolo[1,5-a]pyridine-3-formamide] was tested, and the “BaF3/TEL-AXL proliferation Inhibitory rate (%)” value ([1]; 1 nM, two values per compound, 0.001 µM) was 64.2%, the “BaF3/TEL-AXL proliferation Inhibitory rate (%)” value ([1]; 10 nM, two values per compound, 0.01 µM) was 75.9% and the “BaF3/TEL-AXL proliferation Inhibitory rate (%)” value ([1]; 100 nM, two values per compound, 0.1 µM) was 88.2%. For the same molecule, the inhibition at 0.001 µM ([1]; BaF3/TEL-AXL, 1 nM, two values per compound, read-out: BaF3/TEL-AXL proliferation Inhibitory rate (%)) was 78.9%, the inhibition at 0.01 µM ([1]; BaF3/TEL-AXL, 10 nM, two values per compound, read-out: BaF3/TEL-AXL proliferation Inhibitory rate (%)) was 79.8% and the inhibition at 0.1 µM ([1]; BaF3/TEL-AXL, 100 nM, two values per compound, read-out: BaF3/TEL-AXL proliferation Inhibitory rate (%)) was 85.9%. For the same molecule, the inhibition at 0.001 µM ([1]; BaF3/TEL-AXL, concentration of 1 nM, read-out: inhibited the proliferation of BaF3/TEL-AXL cells) was greater than 70%, the inhibition at 0.05 µM ([2]; the first time) was 57.3% and the inhibition at 0.05 µM ([2]; the second time) was 57.8%. The inhibition at 0.05 µM ([3]; the first time) was 27.2%, the inhibition at 0.05 µM ([3]; the second time) was 29.8% and the inhibition at 0.05 µM ([4]; the first time) was 41%. The inhibition at 0.05 µM ([4]; the second time) was 41.2%, the inhibition at 0.05 µM ([5]; the first time) was 52.1% and the inhibition at 0.05 µM ([5]; the second time) was 52.2%. For the same molecule, the inhibition at 0.05 µM ([6]; the first time) was 41.2%, the inhibition at 0.05 µM ([6]; the second time) was 41.2% and the inhibition at 0.05 µM ([7]; the first time) was 22.4%. The inhibition at 0.05 µM ([7]; the second time) was 23.9%, the inhibition at 0.05 µM ([8]; the first time) was 22.5% and the inhibition at 0.05 µM ([8]; the second time) was 23.5%. For the same molecule, the inhibition at 0.05 µM ([9]; the first time) was 20%, the inhibition at 0.05 µM ([9]; the second time) was 21% and the inhibition at 0.05 µM ([10]; the first time) was 28%. For the same molecule, the inhibition at 0.05 µM ([10]; the second time) was 29.3%, the inhibition at 0.05 µM ([11]; the first time) was 18.9% and the inhibition at 0.05 µM ([11]; the second time) was 19.4%. The “c-Met Inhibitory rate (%)” value ([12]; 1 nM, 0.001 µM) was 30.6% and 52.3%, the “c-Met Inhibitory rate (%)” value ([12]; 10 nM, 0.01 µM) was 75.1% and the inhibition at 0.01 µM ([12]; 10 nM, read-out: c-Met Inhibitory rate (%)) was 69.4%. For the same molecule, the “c-Met Inhibitory rate (%)” value ([12]; 100 nM, 0.1 µM) was 100%, the inhibition at 0.1 µM ([12]; 100 nM, read-out: c-Met Inhibitory rate (%)) was 97.1% and the inhibition at 0.05 µM ([13]; the first time) was 94.6%. The inhibition at 0.05 µM ([13]; the second time) was 95.2%, the inhibition at 0.05 µM ([14]; the first time) was 99.4% and the inhibition at 0.05 µM ([14]; the second time) was 99.5%. It also gave an inhibition at 0.05 µM ([15]; the first time) of 77.2%, an inhibition at 0.05 µM ([15]; the second time) of 77.2% and an inhibition at 0.05 µM ([16]; the first time) of 17.1%. For the same molecule, the inhibition at 0.05 µM ([16]; the second time) was 17.7%, the inhibition at 0.05 µM ([17]; the first time) was 23.8% and the inhibition at 0.05 µM ([17]; the second time) was 24.1%. For the same molecule, the “kinase profile selectivity (in words)” value [18] was “good selectivity for AXL kinase”, the inhibition at 0.05 µM ([19]; the first time) was 29.5% and the inhibition at 0.05 µM ([19]; the second time) was 29.9%. It also gave an inhibition at 0.05 µM ([20]; the first time) of 98.6%, an inhibition at 0.05 µM ([20]; the second time) of 99% and an inhibition at 0.05 µM ([21]; the first time) of 25.8%. It also gave an inhibition at 0.05 µM ([21]; the second time) of 28.3%, an inhibition at 0.05 µM ([22]; the first time) of 17.9% and an inhibition at 0.05 µM ([22]; the second time) of 18.6%. The inhibition at 0.05 µM ([23]; the first time) was 52.8%, the inhibition at 0.05 µM ([23]; the second time) was 53.1% and the inhibition at 0.05 µM ([24]; the first time) was 64.1%. For the same molecule, the inhibition at 0.05 µM ([24]; the second time) was 64.2%, the inhibition at 0.05 µM ([25]; the first time) was 22.4% and the inhibition at 0.05 µM ([25]; the second time) was 27.7%. For the same molecule, the inhibition at 0.05 µM ([26]; the first time) was 25.9%, the inhibition at 0.05 µM ([26]; the second time) was 27.2% and the inhibition at 0.05 µM ([27]; the first time) was 59.2%. For the same molecule, the inhibition at 0.05 µM ([27]; the second time) was 60.3%.
